Results reported in US6303596A, “Use of taurolidine for treatment of leukemias” (priority 2000, dated 2001).

Tests used:
Format in all cases: cell-based, human
[1] = tested on: tissue factor (TF); assay: LPS-induced tissue factor (TF) expression in PBMC, ELISA
Protocol: FIG. 2A represents MM6 cells; FIG. 2B represents PBMC. The cells were induced with LPS (hatched bars: 100 ng/ml LPS in RPMI supplemented with 10% BCS (RPMI+10% BCS); solid bars: 10 ng/ml in AIM-V+0.01% BCS) in the presence of varying concentrations of taurolidine,or with a dilution of the vehicle equivalent to that given to cells receiving 100 μg/ml taurolidine. After four hours, cells were collected and lysates were prepared for TF ELISA. Data are expressed as percent of TF antigen measured in cells treated with LPS alone (no taurolidine or vehicle). Experiments were performed with duplicate samples and were repeated at least three times. Values shown are mean±SEM of all experiments.
For induction of TF or TNFα expression, MM6 cells or PBMC were cultured either in RPMI supplemented with 10% BCS or in AIM-V+0.01% BCS, and stimulated by adding LPS to final concentrations of 10 to 100 ng/ml. […] Except as noted, taurolidine and LPS were added to the cell cultures simultaneously. For TF determination, cells and culture media together were treated by adding Triton X-100 (1% final) and EDTA (7 mmol/L final), and the resulting lysates assayed by ELISA. […] For TNFα determination, cells were removed by centrifugation for 5 min at 250×g, and the supernatants were assayed by ELISA.

[2] = tested on: GM5387 (fibroblasts); assay: growth rate (proliferation) after taurolidine treatment, GM5387; conditions: GM5387, 50 and 100 μg/ml taurolidine
Protocol: (§1) FIGS. 11A and 11B depict cell viability and growth rates for GM5387 cell line following taurolidine treatment, in terms of % trypan blue negative cells and % cell number, respectively. Cells were treated with various concentrations of taurolidine for 4 hours in AIM-V+0.01% BCS. After aliquots were collected for LDH assay, the remainder of the culture was rinsed in HBSS and resuspended in RPMI+10% BCS without taurolidine. Counts of trypan blue-negative cells (FIG. 11A), and total cell number (FIG. 11B), were recorded daily thereafter (with the measurement at Day 1 being made immediately after the 4 hour taurolidine treatment). Conditions were: no treatment (open circles); 25 μg/ml taurolidine (closed circles); 50 μg/ml taurolidine (open squares); 100 μg/ml taurolidine (closed squares); and vehicle alone (closed triangles). Doubling times were determined under each condition, and expressed as a percentage of the rate of doubling of untreated cells. These values are located to the right of the growth curves in (FIG. 11B). […]
(§2) HL-60 cells treated with 50 μl taurolidine. In these samples, LDH present in the culture medium was 8.3±2.3% of that released by completely lysed cells, compared with 2.3±0.8% measured in control cultures. […] After 4 hour treatment, cells were rinsed and returned to growth medium and monitored for viability and growth over the following 3 days. […]

[3] = tested on: HL-60 cells; assay: trypan blue exclusion, HL-60; conditions: HL-60, 25 μg/ml taurolidine, versus MM6, K562, Jurkat
Protocol: FIGS. 7A and 7B depict cell viability and growth rates for HL-60 cell line following taurolidine treatment, in terms of % trypan blue negative cells and % cell number, respectively. Cells were treated with various concentrations of taurolidine for 4 hours in AIM-V+0.01% BCS. After aliquots were collected for LDH assay, the remainder of the culture was rinsed in HBSS and resuspended in RPMI+10% BCS without taurolidine. Counts of trypan blue-negative cells (FIG. 7A), and total cell number (FIG. 7B), were recorded daily thereafter (with the measurement at Day 1 being made immediately after the 4 hour taurolidine treatment). […] Doubling times were determined under each condition, and expressed as a percentage of the rate of doubling of untreated cells. […]
In these experiments, integrity of cell membranes following taurolidine treatment was assessed by exclusion of trypan blue and by measuring the release of LDH in MM6, K-562, HL-60, and REH cells. […] A parallel aliquot of cells was lysed by three cycles of freeze/thaw and the quantity of LDH released was taken to be 100%. […]
HL-60 cells treated with 50 μl taurolidine. In these samples, LDH present in the culture medium was 8.3±2.3% of that released by completely lysed cells, compared with 2.3±0.8% measured in control cultures. […]

[4] = tested on: leukemia-derived cell lines; assay: trypan blue exclusion, cell lines taken together
Protocol: In these experiments, integrity of cell membranes following taurolidine treatment was assessed by exclusion of trypan blue and by measuring the release of LDH in MM6, K-562, HL-60, and REH cells. Since BCS contains significant amounts of LDH, these experiments were conducted on cells cultured in AIM-V+0.01% BCS. Four hour treatment of cells was conducted in AIM-V containing 0.01% BCS in order to allow subsequent LDH assay without interference from BCS (which occurs in when normal culture medium, containing 10% BCS, is used). Thus, MM6 cells (5×10^5 cells/ml) were treated with taurolidine for four hours in AIM-V+0.01% BCS, after which an aliquot of the cell suspension was removed for measurement of LDH release. A parallel aliquot of cells was lysed by three cycles of freeze/thaw and the quantity of LDH released was taken to be 100%. Remaining cells were rinsed in HBSS and resuspended in growth medium for measurement of growth rates.
as §2

[5] = tested on: Jurkat cells; assay: trypan blue exclusion, Jurkat; conditions: 25 μg/ml taurolidine
Protocol: as §1, with “9A” for “11A”, “9B” for “11B”, “Jurkat” for “GM5387”, “9A),” for “11A),”, “9B),” for “11B),”, “9B).” for “11B).”
as §2

SMILES: O=S1(=O)CCN(CN2CCS(=O)(=O)NC2)CN1 [taurolidine, 4,4'-methylenebis(perhydro-1,2,4-thiadiazin 1,1-dioxide)]
- inhibition of LPS-induced TF expression ([1]; PBMC, taurolidine 75 μg/ml, 4 h): complete inhibition of TF expression
- induction of TF in response to LPS (summary) ([1]; peripheral blood monocytes or cultured MM6 cells): strongly inhibited the induction of TF
- proliferation after treatment [2]: inhibited proliferation
- trypan blue staining after treatment, sensitivity [3]: more sensitive
- trypan blue assay on Day 1 ([4]; all samples, 25 to 100 μg/ml taurolidine, after 4 h treatment): equivalent to control
- progressive permeability to trypan blue over following days ([4]; leukemia-derived cell lines except K562, taurolidine 50 μg/ml or greater): permeability to trypan blue
- trypan blue staining after treatment [5]: did not show an increase in trypan blue staining
